Measurements reported in patent publication US12156880B2, “Heterocyclic RIP1 kinase inhibitors” (Rigel Pharmaceuticals, Inc., priority 2021, dated 2024).

Experiments:
U937 cells = experiment: U937 cell necroptosis assay (TNFa + zVAD, CellTiter-Glo recovery); format: cell-based; details: Homo sapiens, U-937, 18 h, TNFa 2 ng/mL + zVAD-fmk, read-out: U937 Zvad TNF CTG Recovery, U937, TNFa + zVAD (IC50)
Description: (§1) In this example, U937 and L929 cells were exposed to compounds of the present disclosure and a cell necroptosis assay was conducted to evaluate the compounds' activity against human RIP1 and murine RIP1.
(§2) U937 and L929 cells were obtained from the American Type Culture Collection (Manassas, VA, USA). Both cells were maintained in logarithmic growth phase in complete RPMI 1640 media (Sigma, ST Louis, MO, USA) supplemented with 10% fetal bovine serum (Sigma, ST Louis, MO, USA) at 37° C. with 5% CO2. For necroptosis assay, L929 cells were plated for 18 h in 100 μL/well medium at 10K cells/well in Costar 96-well black clear-bottom plates (Fisher Scientific, Hampton, NH, USA); U937 cells were plated on the day of the assay in 50 μL/well medium containing 60 uM zVAD-fmk (Lonza, Basel, Switzerland) at 50K cells/well. Medium from L929 cells were removed from the 96-well plates and replaced with 50 μL/well new medium containing 40 uM zVAD-fmk. Each compound of the present disclosure evaluated in this example was serially diluted in DMSO from 2.5 mM in 4-fold dilutions, and then diluted 1:125 in complete medium. 50 μL/well 2× of the compound was then added to the cells in the plates. The cells were pre-incubated with the compound for 1 hour at 37° C. with 5% CO2 and before addition of 10 μL/well 11×TNFa (Peprotech, Rocky Hill, NJ, USA) to give a final concentration of 2 ng/mL for TNFa. The relative amount of necroptosis cells was determined by luminescent using a Wallac Victor2 Luminometer (PerkinElmer, Waltham, MA, USA) and a CellTiter-Glo® Luminescent Cell Viability Reagent Assay (Promega, Madison, WI, USA) added per manufacturer instructions after 18 hours of TNFa stimulation at 37° C. with 5% CO2. This example establishes that embodiments of the compounds described herein have unexpectedly potent activity against human RIP1 and murine RIP1, which allows their assessment in in vivo mouse models of disease.

RIPK1 = molecular target: T1, RIPK1 (Homo sapiens, UniProt Q13546); experiment: RIPK1 ADP-Glo biochemical kinase assay; details: read-out: RIPK1 ADP-Glo Kinase (IC50)
T1 sequence (Q13546 1-671): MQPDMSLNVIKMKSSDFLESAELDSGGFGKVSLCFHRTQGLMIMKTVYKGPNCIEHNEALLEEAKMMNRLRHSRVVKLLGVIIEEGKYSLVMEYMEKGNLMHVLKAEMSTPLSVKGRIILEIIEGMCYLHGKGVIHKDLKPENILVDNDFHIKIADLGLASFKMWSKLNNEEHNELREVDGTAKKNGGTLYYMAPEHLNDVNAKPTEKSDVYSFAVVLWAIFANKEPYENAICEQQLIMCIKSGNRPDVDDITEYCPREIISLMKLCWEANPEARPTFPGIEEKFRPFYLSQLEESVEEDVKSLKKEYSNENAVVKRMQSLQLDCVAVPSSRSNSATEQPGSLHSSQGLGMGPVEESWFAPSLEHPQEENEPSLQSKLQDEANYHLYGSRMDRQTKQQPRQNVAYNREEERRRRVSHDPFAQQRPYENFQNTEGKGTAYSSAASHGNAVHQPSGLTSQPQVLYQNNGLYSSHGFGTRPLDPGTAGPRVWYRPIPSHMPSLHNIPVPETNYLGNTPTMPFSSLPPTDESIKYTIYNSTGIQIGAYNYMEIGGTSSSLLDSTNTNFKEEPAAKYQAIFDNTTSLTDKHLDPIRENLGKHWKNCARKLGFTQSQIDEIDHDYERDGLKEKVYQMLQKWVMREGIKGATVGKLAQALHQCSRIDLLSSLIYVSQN
Description: In this example, compounds of the disclosure were evaluated using a biochemical assay using the ADP-Glo™ technology.
ADP-Glo™ (Promega, Madison, WI, USA) reagents were thawed at ambient temperature. Kinase Detection Reagent was prepared by mixing kinase detection buffer with the lyophilized kinase detection substrate.
A […] stock volume of 5× Reaction Kinase Buffer was made by mixing 1000 μl of 1M MgCl2, 500 μl of 1M Tris-HCL pH7.4, 0.5 mg/ml (25 mg) of BSA, and 3475 μl of distilled H2O. A 3 ml 2× working stock volume of Reaction Kinase Buffer was made containing a final concentration of 100 μM DTT and 4 mM MnCl2.
Components of RIPK1 enzyme (Rigel Pharmaceuticals, South San Francisco, CA, USA) were thawed on ice. Diluted RIPK1 was prepared in 1× Kinase Reaction Buffer (diluted from 2× buffer) to 31 ng/well.
1.0 ul of diluted compound was added to a 384 well plate in duplicate. […] The final reaction volume was 5.0 μl.
The plate was quickly centrifuged and the reaction was incubated at 30° C. for 30 minutes. Adding 5 μl of ADP-Glo™ terminated the reaction. The plate was quickly centrifuged and the reaction was incubated at room temperature for 40 minutes. Kinase Detection Reagent was then added and incubated at room temperature for 30 minutes. The relative light unit (RLU) of kinase reaction was determined by luminescent (Luminescence 0.1 s) using a Wallac Victor2 Luminometer (PerkinElmer, Waltham, MA, USA).

L929 cells = experiment: L929 cell necroptosis assay (TNFa + zVAD, CellTiter-Glo recovery); format: cell-based, murine; design: L929-CTG-recovery, L929, TNFa + zVAD (IC50): unit not given here; details: TNFa 2 ng/mL + zVAD-fmk; for IC50: Mus musculus, L929, 18 h, read-out: L929-CTG-recovery, L929, TNFa + zVAD (IC50); for L929-CTG-recovery, L929, TNFa + zVAD (IC50): 18 hours
Description: as §1, §2

Compound	IC50 (U937 cells) [nM]	IC50 (RIPK1) [nM]	IC50 (L929 cells) [µM]	L929-CTG-recovery, L929, TNFa + zVAD (IC50) (L929 cells)
Cc1cccc(Oc2ccnc(C(=O)N[C@H]3COc4ccc(C#CC(C)(C)O)cc4N(C)C3=O)c2)n1 [I-130, (S)—N-(7-(3-hydroxy-3-methylbut-1-yn-1-yl)-5-methyl-4-oxo-2,3,4,5-tetrahydrobenzo[b][1,4]oxazepin-3-yl)-4-((6-methylpyridin-2-yl)oxy)picolinamide]	311	33.4	5.04	
Cc1ncccc1Oc1ccnc(C(=O)N[C@H]2COc3ccc(C#CC4(O)CCC4)cc3N(C)C2=O)c1 [I-82, (S)—N-(7-((1-hydroxycyclobutyl)ethynyl)-5-methyl-4-oxo-2,3,4,5-tetrahydrobenzo[b][1,4]oxazepin-3-yl)-4-((2-methylpyridin-3-yl)oxy)picolinamide]	30.2	29.4	4.48	
Cc1ccc(Oc2ccnc(C(=O)N[C@H]3COc4ccc(C#CC5(O)COC5)cc4N(C)C3=O)c2)cn1 [I-3, (S)—N-(7-((3-hydroxyoxetan-3-yl)ethynyl)-5-methyl-4-oxo-2,3,4,5-tetrahydrobenzo[b][1,4]oxazepin-3-yl)-4-((6-methylpyridin-3-yl)oxy)picolinamide]	152	28.9	3.85	
CN1C(=O)[C@@H](NC(=O)n2cc(Cc3cccc(F)n3)cn2)COc2ccc(C#CC(C)(C)CO)cc21 [I-37, (S)-4-((6-Fluoropyridin-2-yl)methyl)-N-(7-(4-hydroxy-3,3-dimethylbut-1-yn-1-yl)-5-methyl-4-oxo-2,3,4,5-tetrahydrobenzo[b][1,4]oxazepin-3-yl)-1H-pyrazole-1-carboxamide]	4	16.2	0.697	
CN1C(=O)[C@@H](NC(=O)n2cc(Cc3cccnc3F)cn2)COc2ccc(C#CC(C)(C)O)cc21 [I-43, (S)-4-((2-Fluoropyridin-3-yl)methyl)-N-(7-(3-hydroxy-3-methylbut-1-yn-1-yl)-5-methyl-4-oxo-2,3,4,5-tetrahydrobenzo[b][1,4]oxazepin-3-yl)-1H-pyrazole-1-carboxamide]	17.9	17.7	2.52	
CN1C(=O)[C@@H](NC(=O)c2cc(Oc3cccnc3F)ccn2)COc2ccc(C#CC3(O)CCC3)cc21 [I-83, (S)-4-((2-fluoropyridin-3-yl)oxy)-N-(7-((1-hydroxycyclobutyl)ethynyl)-5-methyl-4-oxo-2,3,4,5-tetrahydrobenzo[b][1,4]oxazepin-3-yl)picolinamide]	1.4	19.1	0.218	
CN1C(=O)[C@@H](NC(=O)c2cc(Cc3cccc(C#N)n3)ccn2)COc2ccc(C#CC3(O)COC3)cc21 [I-94, (S)-4-((6-cyanopyridin-2-yl)methyl)-N-(7-((3-hydroxyoxetan-3-yl)ethynyl)-5-methyl-4-oxo-2,3,4,5-tetrahydrobenzo[b][1,4]oxazepin-3-yl)picolinamide]	23.7	18	3.79	
CN1C(=O)[C@@H](NC(=O)n2cc(Cc3cccc(F)n3)cn2)COc2ccc(C#CC3COC3)cc21 [I-108, (S)-4-((6-Fluoropyridin-2-yl)methyl)-N-(5-methyl-7-(oxetan-3-ylethynyl)-4-oxo-2,3,4,5-tetrahydrobenzo[b][1,4]oxazepin-3-yl)-1H-pyrazole-1-carboxamide]	12.8	88	2.09	
CN1C(=O)[C@@H](NC(=O)n2cc(Cc3cccc(F)n3)cn2)COc2ccc(Br)cc21 [I-20, (S)—N-(7-Bromo-5-methyl-4-oxo-2,3,4,5-tetrahydrobenzo[b][1,4]oxazepin-3-yl)-4-((6-fluoropyridin-2-yl)methyl)-1H-pyrazole-1-carboxamide]	50.2			5004
CN1C(=O)[C@@H](NC(=O)n2cc(Cc3ccccn3)cn2)COc2ccc(Br)cc21 [I-18, (S)—N-(7-Bromo-5-methyl-4-oxo-2,3,4,5-tetrahydrobenzo[b][1,4]oxazepin-3-yl)-4-(pyridin-2-ylmethyl)-1H-pyrazole-1-carboxamide]	286			5013
CN1C(=O)[C@@H](NC(=O)n2cc(Cc3cccnc3)cn2)COc2ccc(Br)cc21 [I-22, (S)—N-(7-Bromo-5-methyl-4-oxo-2,3,4,5-tetrahydrobenzo[b][1,4]oxazepin-3-yl)-4-(pyridin-3-ylmethyl)-1H-pyrazole-1-carboxamide]	35.1			5004
CN1C(=O)[C@@H](NC(=O)n2cc(Cc3ccncc3)cn2)COc2ccc(Br)cc21 [I-28, (S)—N-(7-Bromo-5-methyl-4-oxo-2,3,4,5-tetrahydrobenzo[b][1,4]oxazepin-3-yl)-4-(pyridin-4-ylmethyl)-1H-pyrazole-1-carboxamide]	235			5027
CN1C(=O)[C@@H](NC(=O)n2cc(Oc3cccc(F)n3)cn2)COc2ccc(C#CC3CCOCC3)cc21 [I-111, (S)-4-((6-Fluoropyridin-2-yl)oxy)-N-(5-methyl-4-oxo-7-((tetrahydro-2H-pyran-4-yl)ethynyl)-2,3,4,5-tetrahydrobenzo[b][1,4]oxazepin-3-yl)-1H-pyrazole-1-carboxamide]	7270		85.2	
CN1C(=O)[C@@H](NC(=O)n2cc(Cc3cccc(C(F)(F)F)n3)cn2)COc2ccc(Br)cc21 [I-21, (S)—N-(7-Bromo-5-methyl-4-oxo-2,3,4,5-tetrahydrobenzo[b][1,4]oxazepin-3-yl)-4-((6-(trifluoromethyl)pyridin-2-yl)methyl)-1H-pyrazole-1-carboxamide]	1370		30.4	
CN1C(=O)[C@@H](NC(=O)c2cc(Cc3cocn3)ccn2)COc2ccc(C#CC3(O)COC3)cc21 [I-138, (S)—N-(7-((3-hydroxyoxetan-3-yl)ethynyl)-5-methyl-4-oxo-2,3,4,5-tetrahydrobenzo[b][1,4]oxazepin-3-yl)-4-(oxazol-4-ylmethyl)picolinamide]	12.9		0.106	
CN1C(=O)[C@@H](NC(=O)n2cc(Cc3ncccn3)cn2)COc2ccc(C#CC(C)(C)O)cc21 [I-31, (S)—N-(7-(3-Hydroxy-3-methylbut-1-yn-1-yl)-5-methyl-4-oxo-2,3,4,5-tetrahydrobenzo[b][1,4]oxazepin-3-yl)-4-(pyrimidin-2-ylmethyl)-1H-pyrazole-1-carboxamide]	1980	106		
